Assays:
total LRRK2 = system: T1, total LRRK2; assay: Western Blot, cultured immune stimulated human PBMCs; assay type: cell-based; conditions: 100 nM; 24hr; PMA/INF-γ stimulated PBMCs, 3 DIV
T1 construct: human primary cells expressing endogenous levels of LRRK2; endogenous in cells; host or cells: human PBMCs from healthy donors

Rab10-pThr73 [1] = assay: as above; assay type: cell-based; conditions: 100 nM
Description: PBMC were isolated from fresh blood collected within a maximal time of 4 hours after blood collection. Leucosep tubes (Greiner 227290) was added 15 ml Ficoll (GE Healthcare 17-440-03) and spun 30 s at 1000 × g. Blood was diluted 1:1 using D-PBS 1X (Gibco 14190), transfered to the Leucosep and centrifuged at 800 g for 15 min without brake. The upper layer corresponding to the diluted plasma was removed and the PBMC layer collected using a pipette or by pouring into a clean BD Falcon 50 ml tube. Cells were re-suspended and washed four times with 10 ml of D-PBS 1X (Gibco 14190) followed by centrifugation at 250 g for 10 min with brake at room temperature. The supernatant was discarded and the cells re-suspended in Complete medium equilibrated to 37 °C. The number of dead and living cells were counted on a Nucleocounter and used to calculate percent viability.
Freshly isolated PBMCs were plated at a density ranging from 7–20 × 10^6 cells in 10 cm petri dishes (Costar 3262) in RPMI-1640 media (Gibco 61870–010) supplemented with 10% non-heat inactivated FBS, 5 ml Antimycotic (Sigma cat:5965) with or without an immune stimulation cocktail consisting of 400 nM phorbol 12-myristate 13-acetate (PMA) and 100 ng/ml interferon-γ (INF-γ). After 48 hrs in culture the cultures were added a fifth of the volume media containing 5x the final concentration of the respective LRRK2 inhibitor with or without PMA and interferon-γ. […] After 72 hrs in culture the PBMC’s were harvested, pelleted and fresh-frozen on dry-ice. An aliquot of PBMCs was used for assessment of PBMC yield and viability.
Cell pellets were resuspended and solubilized in 100 µL lysis buffer (50 mM Tris hydrochloride, 1 mM magnesium chloride, 1% Triton, 0.1% sodium dodecyl sulfate (SDS), pH 8.0) on ice for 20 minutes and then centrifuged at 20,000 g for 30 minutes at 4 °C. The solubilized crude cell lysate was size mobility separated by SDS-polyacrylamide gel electrophoresis (SDS-PAGE). LRRK2 was separated on a 3–8% Tris-Acetate gel (NuPAGE® Tris-Acetate Mini Gels, Life Technologies, Paisley, UK) and Rab10 and Rab12 were separated using a NuPAGE® Novex 4–12% Bis-Tris Gel (Invitrogen, California, US). An amount of 10 µg total protein was loaded in each well. Proteins were transferred to immobilon-FL PVDF membranes (Millipore, Billerica, US). […] The proteins were visually detected by infrared imaging using Odyssey CLx (LI-COR, Nebraska, US). Membranes were scanned and band intensities were quantified using the Image Studio version 3.1.4 (LI-COR, Nebraska).

IKKa = system: T2, IKKa; assay: KiNativ profiling in human PBMCs; assay type: binding; conditions: Lys2
T2 construct: purchased ActivX Technologies (KiNativ)
Procedure, shortened: (§1)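 Steps: expose living PBMCs to compound (0.1 µM or 1 µM); perform KiNativ-based kinase profiling.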

IKKb = system: T3, IKKb; assay: KiNativ profiling in human PBMCs; assay type: binding
T3 construct: purchased ActivX Technologies (KiNativ)
Procedure, shortened: as §1

IRAK3 = system: T4, IRAK3; assay: KiNativ profiling in human PBMCs; assay type: binding; conditions: Lys1
T4 construct: purchased ActivX Technologies (KiNativ)
Procedure, shortened: as §1

MST1 = system: T5, MST1; assay: KiNativ profiling in human PBMCs; assay type: binding; conditions: Lys1
T5 construct: purchased ActivX Technologies (KiNativ)
Procedure, shortened: as §1

NEK6,NEK7 = assay: KiNativ profiling in human PBMCs; assay type: binding; conditions: Lys2
Procedure, shortened: as §1

RSKL1 domain1 = system: T6, RSKL1 domain1; assay: KiNativ profiling in human PBMCs; assay type: binding; conditions: for Inhibition: Protein Kinase Domain; for % Inhibition: ATP
T6 construct: RSKL1 domain1; purchased ActivX Technologies (KiNativ)
Procedure, shortened: as §1

LRRK2-pSer935 = target: T7, LRRK2-pSer935 (Homo sapiens, UniProt Q5S007); assay: Acute inhibition, Western Blot, non-stimulated human PBMCs; assay type: cell-based
T7 construct: human primary cells expressing endogenous levels of LRRK2; endogenous in cells; host or cells: human PBMCs from healthy donors
Description: (§2) HEK293 cells were plated at a density of 1 × 10^6 cells/well in 6-well plates pre-coated for 1 hr at 37 °C with poly-L-lysin. Subsequent to the transient transfection HEK293 cells were harvested using 1 mL cold Phosphate Buffered Saline (PBS) buffer (Invitrogen, California, US) and subsequently centrifuged at 800 g for 2 minutes. Cell pellets were resuspended and solubilized in 100 µL lysis buffer (50 mM Tris hydrochloride, 1 mM magnesium chloride, 1% Triton, 0.1% sodium dodecyl sulfate (SDS), pH 8.0) on ice for 20 minutes and then centrifuged at 20,000 g for 30 minutes at 4 °C. The solubilized crude cell lysate was size mobility separated by SDS-polyacrylamide gel electrophoresis (SDS-PAGE). LRRK2 was separated on a 3–8% Tris-Acetate gel (NuPAGE® Tris-Acetate Mini Gels, Life Technologies, Paisley, UK) and Rab10 and Rab12 were separated using a NuPAGE® Novex 4–12% Bis-Tris Gel (Invitrogen, California, US). An amount of 10 µg total protein was loaded in each well. Proteins were transferred to immobilon-FL PVDF membranes (Millipore, Billerica, US). Membranes were incubated with primary antibodies overnight at 4 °C: mouse monoclonal [N241A/34] anti-LRRK2 antibody (1:2,000; NeuroMab, California, US), rabbit monoclonal [UDD2 10(12)] anti-pS935-LRRK2 antibody (1:1,000; RabMAb®, Abcam, Cambridge, UK), mouse anti-HA monoclonal antibody [clone HA-7] (1:10,000; Santa Cruz Biotechnology, Texas, US), rabbit anti-Rab10-pThr73 polyclonal [#5981] (1:2,000; H. Lundbeck A/S, DK) and rabbit anti-Rab12-Ser106 polyclonal antibody [#5919] (1:5,000; H. Lundbeck A/S, DK). Subsequently, the membranes were washed and incubated with secondary antibodies for 1 hour at room temperature: Anti-rabbit IgG F(c) (GOAT) antibody IRDye® 800CW Conjugated (1:10,000; Rockland Immunochemicals Inc., Gilbertsville, US) and anti-mouse Alexa Fluor® 680 Goat anti-mouse IgM (1:20,000; Life Technologies, Paisley, UK). The proteins were visually detected by infrared imaging using Odyssey CLx (LI-COR, Nebraska, US). Membranes were scanned and band intensities were quantified using the Image Studio version 3.1.4 (LI-COR, Nebraska).
(§3) PBMCs were isolated using the density gradient medium, Lymphoprep™ from Stemcell Technologies (Vancouver, Canada) following their standard protocol. Briefly, 4 ml blood was diluted with 4 ml PBS and applied at the SepMate™ tubes (Stemcell Technologies) and spun at 1200xg for 20 min at RT in the centrifuge without brakes. The PBMC layer was collected and spun at 600xg for 8 min and washed two times in PBS by spinning at 600xg between each wash. After the last wash, the cells were counted and the cellular concentration was adjusted to 50 × 10^6 cells/ml in PBS. Donor samples were treated with the LRRK2 inhibitor PFE-360 for one hour and the cells were hereafter lysed by adding 1/10 volume lysis buffer (5% Triton-X, 5% Digitonin, 10 mM EDTA) containing phosphatase and protease inhibitor cocktail (Roche Diagnostics, Mannheim, Germany). The lysates from human PBMCs were subjected to SDS-PAGE and Western Blotting procedures as described above.

Rab10-pThr73 [2] = assay: as above; assay type: cell-based
Description: as §2, §3

CK1a = system: T8, CK1a; assay: KiNativ profiling in human PBMCs; assay type: binding; conditions: Lys2
T8 construct: purchased ActivX Technologies (KiNativ)

CK2a1 = system: T9, CK2a1; assay: KiNativ profiling in human PBMCs; assay type: binding; conditions: Protein Kinase Domain
T9 construct: purchased ActivX Technologies (KiNativ)

COT = system: T10, COT; assay: KiNativ profiling in human PBMCs; assay type: binding; conditions: ATP Loop
T10 construct: purchased ActivX Technologies (KiNativ)

MPSK1 = system: T11, MPSK1; assay: KiNativ profiling in human PBMCs; assay type: binding; conditions: Lys1
T11 construct: purchased ActivX Technologies (KiNativ)

p38b = system: T12, p38b; assay: KiNativ profiling in human PBMCs; assay type: binding; conditions: Protein Kinase Domain
T12 construct: purchased ActivX Technologies (KiNativ)

p70S6Kb = system: T13, p70S6Kb; assay: KiNativ profiling in human PBMCs; assay type: binding; conditions: Lys2
T13 construct: purchased ActivX Technologies (KiNativ)

PEK = system: T14, PEK; assay: KiNativ profiling in human PBMCs; assay type: binding; conditions: Lys2
T14 construct: purchased ActivX Technologies (KiNativ)

PHKg2 = system: T15, PHKg2; assay: KiNativ profiling in human PBMCs; assay type: binding; conditions: Lys1
T15 construct: purchased ActivX Technologies (KiNativ)

PIP4K2B = system: T16, PIP4K2B; assay: KiNativ profiling in human PBMCs; assay type: binding; conditions: ATP
T16 construct: purchased ActivX Technologies (KiNativ)

[3] = 2 µM, 1hr, non-stimulated PBMCs, n = 6 donors
[4] = non-stimulated human PBMCs, 1 hour, n = 3

T7 sequence (Q5S007 whole entry): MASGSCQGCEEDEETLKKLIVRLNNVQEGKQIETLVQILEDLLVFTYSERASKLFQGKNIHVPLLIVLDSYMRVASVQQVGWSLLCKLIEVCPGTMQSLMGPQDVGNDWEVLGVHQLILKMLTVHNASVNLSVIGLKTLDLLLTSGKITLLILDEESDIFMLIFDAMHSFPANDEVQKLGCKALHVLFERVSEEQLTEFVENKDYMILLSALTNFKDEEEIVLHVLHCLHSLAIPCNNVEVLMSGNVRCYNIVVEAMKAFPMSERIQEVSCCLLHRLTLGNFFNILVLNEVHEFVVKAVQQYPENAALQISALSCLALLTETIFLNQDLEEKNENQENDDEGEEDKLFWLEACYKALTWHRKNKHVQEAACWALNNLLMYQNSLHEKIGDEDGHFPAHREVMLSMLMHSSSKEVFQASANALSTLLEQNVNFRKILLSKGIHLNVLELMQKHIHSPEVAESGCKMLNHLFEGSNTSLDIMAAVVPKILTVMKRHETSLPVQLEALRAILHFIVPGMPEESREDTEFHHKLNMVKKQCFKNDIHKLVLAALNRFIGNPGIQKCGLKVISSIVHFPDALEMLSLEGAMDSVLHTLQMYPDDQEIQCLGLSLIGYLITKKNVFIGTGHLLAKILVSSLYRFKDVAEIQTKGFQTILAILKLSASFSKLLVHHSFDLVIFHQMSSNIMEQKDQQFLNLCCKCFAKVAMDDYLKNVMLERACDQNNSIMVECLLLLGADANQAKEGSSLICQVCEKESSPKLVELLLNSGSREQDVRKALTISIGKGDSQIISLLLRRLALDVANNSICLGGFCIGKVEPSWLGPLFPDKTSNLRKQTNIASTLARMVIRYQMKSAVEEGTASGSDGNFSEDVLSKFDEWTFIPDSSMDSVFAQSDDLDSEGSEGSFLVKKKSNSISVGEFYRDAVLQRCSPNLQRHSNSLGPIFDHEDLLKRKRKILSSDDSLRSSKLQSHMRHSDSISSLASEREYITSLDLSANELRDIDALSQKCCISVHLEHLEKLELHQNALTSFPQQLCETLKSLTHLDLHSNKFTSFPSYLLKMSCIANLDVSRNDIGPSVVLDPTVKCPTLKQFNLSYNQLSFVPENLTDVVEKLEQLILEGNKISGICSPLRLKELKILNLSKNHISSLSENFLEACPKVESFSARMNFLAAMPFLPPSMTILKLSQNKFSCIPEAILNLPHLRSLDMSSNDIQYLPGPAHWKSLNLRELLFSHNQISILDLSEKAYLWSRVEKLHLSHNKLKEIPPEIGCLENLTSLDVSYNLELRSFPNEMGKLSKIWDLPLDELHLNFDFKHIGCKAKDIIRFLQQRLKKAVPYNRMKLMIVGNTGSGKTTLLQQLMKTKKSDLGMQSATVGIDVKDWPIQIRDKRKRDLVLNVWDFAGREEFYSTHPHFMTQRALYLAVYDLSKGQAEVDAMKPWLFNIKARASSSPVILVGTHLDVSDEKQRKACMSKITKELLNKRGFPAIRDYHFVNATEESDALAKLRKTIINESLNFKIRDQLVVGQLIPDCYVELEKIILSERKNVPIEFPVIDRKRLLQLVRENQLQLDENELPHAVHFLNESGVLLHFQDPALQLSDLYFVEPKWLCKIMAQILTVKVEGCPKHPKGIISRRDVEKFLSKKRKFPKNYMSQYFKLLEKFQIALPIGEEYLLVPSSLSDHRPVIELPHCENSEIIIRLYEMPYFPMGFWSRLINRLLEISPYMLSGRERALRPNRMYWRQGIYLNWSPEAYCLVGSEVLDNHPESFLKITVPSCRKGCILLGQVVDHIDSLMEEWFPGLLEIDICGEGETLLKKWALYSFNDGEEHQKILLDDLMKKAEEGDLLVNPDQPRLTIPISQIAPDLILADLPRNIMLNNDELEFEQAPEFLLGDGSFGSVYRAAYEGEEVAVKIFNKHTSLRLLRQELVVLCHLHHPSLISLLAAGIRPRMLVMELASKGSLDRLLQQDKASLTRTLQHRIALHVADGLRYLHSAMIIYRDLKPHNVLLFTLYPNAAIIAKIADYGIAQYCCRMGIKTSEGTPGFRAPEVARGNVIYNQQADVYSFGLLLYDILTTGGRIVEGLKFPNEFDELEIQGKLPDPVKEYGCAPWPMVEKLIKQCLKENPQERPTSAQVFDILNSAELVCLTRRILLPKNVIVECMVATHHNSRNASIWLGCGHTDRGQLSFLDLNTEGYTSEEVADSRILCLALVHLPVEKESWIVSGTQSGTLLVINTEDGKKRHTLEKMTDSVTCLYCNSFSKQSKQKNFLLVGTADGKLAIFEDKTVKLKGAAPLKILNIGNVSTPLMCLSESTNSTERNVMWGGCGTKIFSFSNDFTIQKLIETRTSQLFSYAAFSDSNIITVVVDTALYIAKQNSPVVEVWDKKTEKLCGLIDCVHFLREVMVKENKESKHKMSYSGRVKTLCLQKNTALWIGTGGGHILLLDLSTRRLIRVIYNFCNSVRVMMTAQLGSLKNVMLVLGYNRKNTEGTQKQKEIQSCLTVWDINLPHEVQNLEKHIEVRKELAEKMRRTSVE

Compound: Cc1cccc(-c2cc(Nc3ccn(C)n3)nc3[nH]cc(C#N)c23)c1 [Lu AF58786]
- total LRRK2 protein levels (total LRRK2): significantly lowers
- inhibition of Rab10 phosphorylation (Rab10-pThr73/total Rab10) (Rab10-pThr73 [1]; 1 hr): not at 1 hr
- inhibition of Rab10 phosphorylation (Rab10-pThr73/total Rab10) (Rab10-pThr73 [1]; 24 hrs): able to inhibit Rab10 phosphorylation at 24 hrs
- Inhibition (IKKa; 0.1µM): 9.8%
- Inhibition (IKKa; 1µM): 6.8%
- Inhibition (IKKb; 0.1µM, Lys2): 11.5%
- Inhibition (IKKb; 1µM, Lys2): -4.3%
- Inhibition (IRAK3; 0.1µM): -25.6%
- Inhibition (IRAK3; 1µM): 17.0%
- Inhibition (MST1; 0.1µM): 26.2%
- Inhibition (MST1; 1µM): 19.0%
- Inhibition (NEK6,NEK7; 0.1µM): 15.4%
- Inhibition (NEK6,NEK7; 1µM): -5.8%
- Inhibition (RSKL1 domain1; 0.1µM): 15.2%
- Inhibition (RSKL1 domain1; 1µM): 1.9%

Compound: Cn1cc(-c2c[nH]c3ncnc(N4CCOCC4)c23)cc1C#N [PFE-360]
- inhibition of Rab10 phosphorylation (Rab10-pThr73/total Rab10) (Rab10-pThr73 [1]; 1 hr): not at 1 hr
- inhibition of Rab10 phosphorylation (Rab10-pThr73/total Rab10) (Rab10-pThr73 [1]; 24 hrs): able to inhibit Rab10 phosphorylation at 24 hrs
- LRRK2 inhibition (LRRK2-pSer935; 2 µM, 1hr, non-stimulated PBMCs): full LRRK2 inhibition
- LRRK2-pSer935 levels vs PBS-treated PBMC samples (LRRK2-pSer935; [3]): significantly lower
- IC50 (LRRK2-pSer935; [4]): 24 nM
- pIC50 ± SEM, LRRK2-pSer935 (LRRK2-pSer935; [4]): 7.6 ± 0.3 (n = 3)
- Rab10-pThr73 levels vs PBS-treated PBMC samples (Rab10-pThr73 [2]; [3]): significantly lower
- IC50 (Rab10-pThr73 [2]; [4]): 12 nM
- pIC50 ± SEM, Rab10-pThr73 (Rab10-pThr73 [2]; [4]): 7.9 ± 0.3 (n = 3)
- % Inhibition (IKKa; 0.1µM): 17.9%
- % Inhibition (IKKa; 1µM): 15.8%
- % Inhibition (IKKb; 0.1µM, Lys1): -5%
- % Inhibition (IKKb; 0.1µM, Lys2): -6%
- % Inhibition (IKKb; 1µM, Lys1): -10.5%
- % Inhibition (IKKb; 1µM, Lys2): -31.2%
- % Inhibition (IRAK3; 0.1µM): -1.2%
- % Inhibition (IRAK3; 1µM): 3%
- % Inhibition (MST1; 0.1µM): 16.8%
- % Inhibition (MST1; 1µM): 34.1%
- % Inhibition (NEK6,NEK7; 0.1µM): -2.4%
- % Inhibition (NEK6,NEK7; 1µM): -18.6%
- % Inhibition (RSKL1 domain1; 0.1µM): -38%
- % Inhibition (RSKL1 domain1; 1µM): 7.3%
- % Inhibition (CK1a; 0.1µM): -17.4%
- % Inhibition (CK1a; 1µM): 4.6%
- % Inhibition (CK2a1; 0.1µM): -27.7%
- % Inhibition (CK2a1; 1µM): -26.5%
- % Inhibition (COT; 0.1µM): 26.3%
- % Inhibition (COT; 1µM): 7.7%
- % Inhibition (MPSK1; 0.1µM): 5.5%
- % Inhibition (MPSK1; 1µM): -27.6%
- % Inhibition (p38b; 0.1µM): 3.5%
- % Inhibition (p38b; 1µM): 7%
- % Inhibition (p70S6Kb; 0.1µM): -6.9%
- % Inhibition (p70S6Kb; 1µM): 10.8%
- % Inhibition (PEK; 0.1µM): 10.6%
- % Inhibition (PEK; 1µM): 17.3%
- % Inhibition (PHKg2; 0.1µM): -21.5%
- % Inhibition (PHKg2; 1µM): -15.8%
- % Inhibition (PIP4K2B; 0.1µM): 6.9%
- % Inhibition (PIP4K2B; 1µM): 22.6%
